Data taken from the supplement of paper PMC13380429.

Experiments:
Conditions in all cases: 72 h
U2OS [1] = assay: cell viability relative to DMSO; higher = less toxic
Caco-2 [2] = assay: as above
HepG2 [3] = assay: as above
Calu-3 [4] = assay: as above
Vero E6 [5] = assay: as above
U2OS [6] = assay: drug sensitivity score (DSS) for viability; higher = more toxic; extreme values may be limits of the assay
Caco-2 [7] = assay: as above
HepG2 [8] = assay: as above
Calu-3 [9] = assay: as above
Vero E6 [10] = assay: as above
U2OS [11] = assay: relative viability EC50 (midpoint between 100% and the lowest measured viability); higher = less toxic
Caco-2 [12] = assay: as above
HepG2 [13] = assay: as above
Calu-3 [14] = assay: as above
Vero E6 [15] = assay: as above

Row | SMILES | cell viability (U2OS [1]; 1 nM) | cell viability (U2OS [1]; 10 nM) | cell viability (U2OS [1]; 100 nM) | cell viability (U2OS [1]; 1000 nM) | cell viability (U2OS [1]; 10000 nM) | cell viability (Caco-2 [2]; 1 nM) | cell viability (Caco-2 [2]; 10 nM) | cell viability (Caco-2 [2]; 100 nM) | cell viability (Caco-2 [2]; 1000 nM) | cell viability (Caco-2 [2]; 10000 nM) | cell viability (HepG2 [3]; 1 nM) | cell viability (HepG2 [3]; 10 nM) | cell viability (HepG2 [3]; 100 nM) | cell viability (HepG2 [3]; 1000 nM) | cell viability (HepG2 [3]; 10000 nM) | cell viability (Calu-3 [4]; 1 nM) | cell viability (Calu-3 [4]; 10 nM) | cell viability (Calu-3 [4]; 100 nM) | cell viability (Calu-3 [4]; 1000 nM) | cell viability (Calu-3 [4]; 10000 nM) | cell viability (Vero E6 [5]; 1 nM) | cell viability (Vero E6 [5]; 10 nM) | cell viability (Vero E6 [5]; 100 nM) | cell viability (Vero E6 [5]; 1000 nM) | cell viability (Vero E6 [5]; 10000 nM) | drug sensitivity score (U2OS [6]) | drug sensitivity score (Caco-2 [7]) | drug sensitivity score (HepG2 [8]) | drug sensitivity score (Calu-3 [9]) | drug sensitivity score (Vero E6 [10]) | relative viability EC50 (U2OS [11]) | relative viability EC50 (Caco-2 [12]) | relative viability EC50 (HepG2 [13]) | relative viability EC50 (Calu-3 [14]) | relative viability EC50 (Vero E6 [15])
1 | NS(=O)(=O)c1cc(C2(O)NC(=O)c3ccccc32)ccc1Cl (stereo not given) [chlorthalidone] | 98.4% | 97.4% | 97.3% | 96.8% | 102% | 107% | 84.5% | 96.8% | 98.6% | 99% | 97.5% | 106% | 97.7% | 107% | 99.6% | 96.7% | 92% | 107% | 86.6% | 97.4% | 97.4% | 102% | 98.8% | 103% | 97.3% | 0 | 0 | 0 | 0 | 0 | > 10 µM | > 10 µM | > 10 µM | > 10 µM | > 10 µM
2 | CN1CC[C@@H]2CN3CCc4cccc(c43)[C@@H]2C1 [SDZ-SER-082] | 98.1% | 97.8% | 98.8% | 100% | 95.2% | 86.8% | 98.7% | 93.4% | 103% | 100% | 106% | 103% | 104% | 95.8% | 110% | 95.7% | 102% | 114% | 94.9% | 100% | 95.1% | 92.7% | 95.6% | 92.5% | 103% | 0 | 0 | 0 | 0 | 0 | > 10 µM | > 10 µM | > 10 µM | > 10 µM | > 10 µM
3 | CCCCCCCC/C=C\CCCCCCCC(=O)N[C@@H](CO)Cc1ccc(O)cc1 [OMDM-2] | 96.8% | 101% | 96.7% | 100% | 99.7% | 87.1% | 94.4% | 97.1% | 91.8% | 102% | 100% | 93.3% | 114% | 106% | 99.6% | 106% | 102% | 99.5% | 96.7% | 97.3% | 92.4% | 92% | 97.4% | 93.7% | 109% | 0 | 0 | 0 | 0 | 0 | > 10 µM | > 10 µM | > 10 µM | > 10 µM | > 10 µM
